{"source": "patent US5133908A", "about": "“Process for the preparation of dispersible colloidal systems of a substance in the form of nanoparticles” (Centre National de la Recherche Scientifique (CNRS), priority 1986, dated 1992)", "key": {"[1]": {"test_system": "human serum albumin (HSA) nanoparticles", "assay": "level of binding of active principle to HSA nanoparticles, ultracentrifugation", "type": "physicochemical", "details": "for level of binding of the sodium salicylate to the nanoparticles: of the amount used", "method": "(§1) Increasing amounts (from 0.25 g to 2.50 g) of sodium salicylate are added to nanoparticles prepared according to example 1 (HSA) or according to example 5 (BSA). The level of binding of the sodium salicylate to the nanoparticles, measured after ultracentrifugation, is 60% of the amount used, irrespective of the amount of active principle added.\n(§2) The procedure uses as in example 1 (1 g of HSA) or of example 5 (1 g of BSA), but carried out in the presence of 0.50 g of sodium salicylate dissolved in phase 1. The mean size of the nanoparticles is 200 nm with a mean dispersion index of 0.5. The level of binding of the sodium salicylate to the nanoparticles, measured after ultracentrifugation, is 60% of the amount used.\n(§3) 50 mg of doxorubicin hydrochloride are added to nanoparticles prepared according to example 1 (HSA) or according to example 5 (BSA). The level of binding of doxorubicin to the nanoparticles, measured after ultracentrifugation, is 90% of the quantity used."}, "[2]": {"test_system": "bovine serum albumin (BSA) nanoparticles", "assay": "level of binding of active principle to BSA nanoparticles, ultracentrifugation", "type": "physicochemical", "details": "for level of binding of the sodium salicylate to the nanoparticles: of the amount used", "method": "as §1, §2, §3"}}, "data": [{"smiles": "COc1cccc2c1C(=O)c1c(O)c3c(c(O)c1C2=O)C[C@@](O)(C(=O)CO)C[C@@H]3O[C@H]1C[C@H](N)[C@H](O)[C@H](C)O1", "note": "[doxorubicin]", "values": [{"measurement": "level of binding of doxorubicin to the nanoparticles", "setting": "[1]; HSA nanoparticles, of the quantity used, 50 mg doxorubicin hydrochloride added", "value": 90, "unit": "%"}, {"measurement": "level of binding of doxorubicin to the nanoparticles", "setting": "[2]; BSA nanoparticles, of the quantity used, 50 mg doxorubicin hydrochloride added", "value": 90, "unit": "%"}]}, {"smiles": "O=C([O-])c1ccccc1O.[Na+]", "note": "[sodium salicylate]", "values": [{"measurement": "level of binding of the sodium salicylate to the nanoparticles", "setting": "[1]; HSA nanoparticles, 0.25 g to 2.50 g added to formed nanoparticles, irrespective of amount", "value": 60, "unit": "%"}, {"measurement": "level of binding of the sodium salicylate to the nanoparticles", "setting": "[1]; HSA, 0.50 g dissolved in phase 1", "value": 60, "unit": "%"}, {"measurement": "level of binding of the sodium salicylate to the nanoparticles", "setting": "[2]; BSA nanoparticles, 0.25 g to 2.50 g added to formed nanoparticles, irrespective of amount", "value": 60, "unit": "%"}, {"measurement": "level of binding of the sodium salicylate to the nanoparticles", "setting": "[2]; BSA, 0.50 g dissolved in phase 1", "value": 60, "unit": "%"}]}]}
